In patent US20260001911A1, “CYCLIC PEPTIDE COMPOUND CONTAINING PIPERAZIC ACID, METHOD OF PRODUCING SAME, AND USES OF SAME” (MolGenBio Co., Ltd., priority 2020, published 2026):
Where two headings read alike, the source gives them in different places. Numbered stars: 1 amine (or outer) side, 2 acyl side, 3 side chain; on linkers, the order of the positions; unused ones are H or OH. Square brackets hold non-standard residues; d marks the D form. Peptide text beside a SMILES is read from it. NMeF = CN[CH](Cc1ccccc1)C(=O)O; X1 = O=C(C1CCCNN1[*:1])[*:2]; NMeV = CN[CH](C(=O)O)C(C)C; NMeS = CN[CH](CO)C(=O)O; NMeA = CN[CH](C)C(=O)O; βAla = NCCC(=O)O

Key:
[1] = test system: HCT116-5-FU resistant cell line; assay: SRB cell growth inhibition, 5-fluorouracil resistant HCT116-5-FU
Method: (§1) With Lenziamide compound prepared as in Example 1 added, the cell lines were cultured for about 72 hours. Thereafter, the resulting cell cultures were stained with sulforhodamine (SRB) that […] and washed to remove non-binding dye, and the stained cells were suspended in 10 mM of Tris (pH 10.0). The absorbance was measured at 515 nm and the cell proliferation was measured. Using TableCurve 2D v5.01 software (Systant Software Inc., Richmond, CA, USA), half maximal inhibitory concentration (IC50) value was calculated by nonlinear regression analysis method. All reagents were purchased from Sigma-Aldrich. As a positive control, etoposide was used.
In order to prepare HCT116-5-FU resistant cell line, 5-fluorouracil was treated to HCT116 cells 3 times a week, and only surviving cells were subcultured with treatment of increasing concentrations of 5-fluorouracil for 3 months. HCT116-5-FU resistant cell line was established by finally collecting and culturing only the surviving cells.

[2] = test system: colorectal cancer cell HCT116; assay: cells
Method: (§2) 6 types of cancer cell lines of Lung adenocarcinoma cell A549, colorectal cancer cell HCT116, breast cancer cell MDA-MB-231, liver adenocarcinoma cell SK-HEP-1, stomach adenocarcinoma cell SNU638, and chronic myeloid leukemia cell K562,and a normal cell line of pulmonary fibroblast MRC-5 were purchased from Korean Cell Line Bank (Seoul, Korea).
as §1

[3] = test system: pulmonary fibroblast MRC-5; assay: cells
Method: as §2, §1

[4] = test system: stomach adenocarcinoma cell SNU638; assay: cells
Method: as §2, §1

[5] = test system: Lung adenocarcinoma cell A549; assay: cells
Method: as §2, §1

[6] = test system: breast cancer cell MDA-MB-231; assay: cells
Method: as §2, §1

[7] = test system: liver adenocarcinoma cell SK-HEP-1; assay: cells
Method: as §2, §1

[8] = test system: chronic myeloid leukemia cell K562; assay: cells
Method: as §2, §1

[9] = test system: colorectal cancer cell line HCT116; assay: Cell cycle analysis by flow cytometry; format: cell-based, human
Method: In order to identify the action mechanism of lenziamide A showing an excellent cell proliferation inhibiting efficacy, cells of colorectal cancer cell line HCT116 were treated with lenziamide A at a concentration of 0 μM, 1.25 μM, 2.5 μM, or […]. The cell cycle control effect of lenziamide A was confirmed by using flow cytometry method, and the results are shown in FIGS. 2A and 2B.

[10] = test system: metastatic colorectal cancer cell line (L-2); assay: Metastatic colorectal cancer cell (L-2) injected animal model; format: in vivo, laboratory mice; settings: 5 mg/kg or 15 mg/kg
Method: As described in Example 2-7 (1), a metastatic colorectal cancer cell line (L-2) was re-injected into appendix of laboratory mice to form tumor, and lenziamide A was administered at a dose of 5 mg/body weight kg or 15 mg/body weight kg. A mixture mixed at a ratio of dimethyl sulfoxide: Cremophor: saline=0.5:0.5:9 was used as a negative control. 10 mg/body weight kg of irinotecan was administered as a positive control. Volumes of tumor (mm3) and body weights of the xenograft animal model (g) were measured from the first day of administration, and the results are shown in FIGS. 6B and 6C.

[11] = test system: metastatic colorectal cancer cell line (L-2); assay: Expression of metastasis related biomarkers; format: cell-based; settings: L-2 cells, 0 μM to 4 μM
Method: of non-metastatic cancer, thereby making it very difficult to treat it. A colorectal cancer cell line (C-1) was injected into appendix of laboratory mice and left for 6 weeks to artificially induce growth and metastasis of tumor, and colorectal cancer cells metastasized to the liver (L-2) were isolated and cultured. After administering 0 μM to 4 μM of lenziamide A to colorectal cancer cell line (C-1) and metastatic colorectal cancer cell line (L-2) obtained above, expression of biomarkers related to metastasis of cancer was identified by reverse transcription polymerase chain reaction (RT-PCR), and the results are shown in FIG. 6A.

[12] = test system: HCT116-5-FU resistant cell line xenograft; assay: HCT116-5-FU resistant xenograft animal model; format: in vivo, BALB/c mice; settings: 10 mg/kg intravenous
Method: HCT116-5-FU resistant cell line prepared as described in Example 2-5 was diluted to a concentration of […] in RPMI medium, and 0.2 mL of the diluted cell line was injected subcutaneously to right flanks of BALB/c mice (5-week old, male). When the size of the tumor reached about 100 mm^3, groups were randomly divided based on the size of the tumor.
Lenziamide A (10 mg/body weight kg), 5-FU (30 mg/body weight kg), or a combination thereof (10 mg/body weight kg of lenziamide A+30 mg/body weight kg of 5-FU) was administered by intravenous injection to resistant cancer cell line injected xenograft animal models. A mixture mixed at a ratio of dimethyl sulfoxide: Cremophor: saline=0.5:0.5:9 was used as a negative control. Volumes of tumor (mm^3) and body weights of the xenograft animal models (g) were measured from the first day of administration, and the results are shown in FIGS. 5A and 5B.

HCT116 cells = assay: Annexin V/propidium iodide dual-stain analysis; format: cell-based, human
Method: In order to confirm that sub G1 cell accumulation due to G2/M arrest effect of lenziamide A leads to cell apoptosis, HCT116 cells were treated with different concentrations of lenziamide A. Thereafter, cell death induction efficacy of lenziamide A was evaluated by using Annexin V/propidium iodide dual-stain analysis method which can identify cell deaths. The results of Annexin V/propidium iodide dual-stain analysis were shown in FIG. 3A, and stages of cells according to the concentration of lenziamide A were shown in FIG. 3B. The ratios (%) of live cells, early apoptosis, late apoptosis, necrosis, and total cell death were calculated.

[13] = test system: HCT116 colorectal cancer xenograft; assay: HCT116 xenograft animal model; format: in vivo; settings: 10, 30 mg/kg intravenous
Method: Cells of HCT116, a human-derived colorectal cancer cell line, were diluted to a concentration of 5×10^6 units/mL in RPMI (Roswell Park Memorial Institute) medium, and 0.2 mL of the diluted cells was injected subcutaneously to right flank of BALB/c mice (5-week old, male). When the size of the tumor reached about 100 mm^3, groups were randomly divided based on the size of the tumor.
Lenziamide A was administered by intravenous injection at a dose of 10 mg/body weight kg or 30 mg/body weight kg to the prepared xenograft animal models. A mixture mixed at a ratio of dimethyl sulfoxide: Cremophor: saline=0.5:0.5:9 was used as a negative control, and irinotecan was used as a positive control. Volume of the tumor (mm^3), body weight of the xenograft animal model (g), and final weight of the tumor (g) were measured from the first day of administration, and the results are shown in FIGS. 4A to 4C.

[14] = Homo sapiens, read-out: IC50 HCT116-5-FU
[15] = Homo sapiens, HCT-116, read-out: IC50 HCT116

| Structure (SMILES) | Fold change (HCT116-5-FU/HCT116) [1] | IC50 [1, 14] [nM] | IC50 [2, 15] [nM] | IC50 ([2]; 72 h) [nM] | IC50 ([3]; 72 h) [nM] | IC50 ([4]; 72 h) [nM] | IC50 ([5]; 72 h) [nM] | IC50 ([6]; 72 h) [nM] | IC50 ([7]; 72 h) [nM] | IC50 ([8]; 72 h) [nM] | other results |
| --- | --- | --- | --- | --- | --- | --- | --- | --- | --- | --- | --- |
| O=c1[nH]cc(F)c(=O)[nH]1 [5-fluorouracil] | 8.70 | 36700 | 4220 | – | – | – | – | – | – | – | – |
| COc1cc([C@@H]2c3cc4c(cc3[C@@H](O[C@@H]3O[C@@H]5CO[C@@H](C)O[C@H]5[C@H](O)[C@H]3O)[C@H]3COC(=O)[C@H]23)OCO4)cc(OC)c1O [Etoposide, reference compound] | 2.53 | 1920 | 760 | – | – | – | – | – | – | – | IC50 ([2]; Homo sapiens, HCT-116, 72 h, read-out: IC50 HCT116): 1860 nM; IC50 ([3]; Homo sapiens, MRC5, 72 h, read-out: IC50 MRC-5): 11600 nM; IC50 ([4]; Homo sapiens, SNU-638, 72 h, read-out: IC50 SNU638): 480 nM; IC50 ([5]; Homo sapiens, A549, 72 h, read-out: IC50 A549): 590 nM; IC50 ([6]; Homo sapiens, MDA-MB-231, 72 h, read-out: IC50 MDA-MB-231): 3360 nM; IC50 ([7]; Homo sapiens, SK-HEP1, 72 h, read-out: IC50 SK-HEP-1): 450 nM; IC50 ([8]; Homo sapiens, K562, 72 h, read-out: IC50 K562): 760 nM |
| CCc1c2c(nc3ccc(OC(=O)N4CCC(N5CCCCC5)CC4)cc13)-c1cc3c(c(=O)n1C2)COC(=O)[C@]3(O)CC [Irinotecan] | 3.72 | 5650 | 1520 | – | – | – | – | – | – | – | – |
| CCC(C)C1NC(=O)C(Cc2ccccc2)N(C)C(=O)C2CCCNN2C(=O)C(CO)N(C)C(=O)C(CC(C)C)NC(=O)C(Cc2ccccc2)N(C)C(=O)C(C)NC(=O)C(C(C)C)N(C)C(=O)CCNC(=O)C(C)N(C)C1=O (stereo not shown) [Lenziamide A] (cyclo([X1][NMeF]I[NMeA][βAla][NMeV]A[NMeF]L[NMeS]); configuration not given here) | – | – | – | 370 | > 20000 | 440 | 800 | 620 | 390 | 770 | growth of HCT116-5-FU resistant cell line [1]: effectively inhibited growth of HCT116-5-FU resistant cell line; IC50 ([1]; 72 h): 420 nM; Fold change (HCT116-5-FU/HCT116) ([1]; IC50 of HCT116-5-FU with respect to IC50 of HCT116): 1.16; sub G1 cell accumulation (cell death) ([9]; after G2/M arrest, high concentration): followed by sub G1 cell accumulation; G2/M cell cycle arrest ([9]; until 24 hours after treatment, 0-5 μM): G2/M cell cycle arrest was increased; growth of tumor in the appendix [10]: also inhibited; metastasis of the tumor to other organs [10]: effectively inhibited; expression of E-cadherin [11]: increased; expression of N-Cadherin and vimentin [11]: decreased; body weight [12]: without significant weight loss; growth of resistant tumor [12]: effectively inhibited growth of resistant tumor; IC50 [2]: 360 nM; early apoptosis cell population (HCT116 cells; 5 μM): about 20.37%; late apoptosis cell population (HCT116 cells; 5 μM): 51.40%; apoptosis (HCT116 cells; different concentrations of lenziamide A): apoptosis increased dependent on the concentration; tumor growth (volume, final weight) [13]: concentration-dependent tumor growth inhibitory effect; body weight (toxicity) ([13]; during administration period): no significant weight decrease |
| CCC(C)C1NC(=O)C(Cc2c[nH]c3ccccc23)N(C)C(=O)C2CCCNN2C(=O)C(CO)N(C)C(=O)C(CC(C)C)NC(C)C(Cc2ccccc2)N(C)C(=O)C(C)NC(=O)C(C(C)C)N(C)C(=O)CCNC(=O)C(C)N(C)C1=O (stereo not shown) [Lenziamide B] | – | – | – | 200 | > 20000 | 250 | 430 | 230 | 220 | 360 | – |
| CC(C)CC1NC(C)C(Cc2ccccc2)N(C)C(=O)C(C)NC(=O)C(C(C)C)N(C)C(=O)CCNC(=O)C(C)N(C)C(=O)C(C(C)C)NC(=O)C(Cc2ccccc2)N(C)C(=O)C2CCCNN2C(=O)C(CO)N(C)C1=O (stereo not shown) [Lenziamide C] | – | – | – | 520 | > 20000 | 430 | 760 | 960 | 530 | 650 | – |
| CC(C)CC1NC(C)C(Cc2ccccc2)N(C)C(=O)C(C)NC(=O)C(C(C)C)N(C)C(=O)CCNC(=O)C(C)NC(=O)C(C(C)C)NC(=O)C(Cc2ccccc2)N(C)C(=O)C2CCCNN2C(=O)C(CO)N(C)C1=O (stereo not shown) [Lenziamide E] | – | – | – | 1010 | > 20000 | 1320 | 1780 | 1590 | 960 | 1210 | – |
